Experimental findings from ChEMBL document CHEMBL1201862, “PubChem BioAssay data set” (2004) are described below.

One experiment concerns MDA-N. In words: NCI tumour cell line growth inhibition, 48 h.
The next experiment deals with BT-549. The experiment in a line: NCI tumour cell line growth inhibition, 48 h.

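Results reflect a 48-hour exposure of cells in 96-well plates to compound at five concentrations. GI50: concentration for 50% inhibition of growth.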 Active and inactive are the calls of the source. Cut-off read from the data, not from the text of the source: active = GI50 up to about 1.1 µM and inactive = higher.

As for `O=C1Nc2cccc(Cl)c2/C1=C\c1c(Cl)nc2sccn12`, the values for the GI50 in the experiment with MDA-N and in the experiment on BT-549 were > 100 µM (inactive) and 28.8 µM (inactive), respectively.

Regarding `Cc1ccc(Cc2n[nH]c(=O)n2Nc2ccccc2)cc1`, the GI50 with MDA-N and in the experiment with BT-549 was > 100 µM (inactive) each time.

In the case of `Cc1ccc(-c2cn3c(nc4ccccc43)c(/C=C/c3ccco3)n2)cc1`, the GI50 in the experiment with MDA-N is 42.1 µM (inactive); in the experiment on BT-549, > 100 µM (inactive).

`COC(=O)/C=C\C(C#N)(C#N)/N=C/c1cccc(OC)c1`: the GI50 with MDA-N is 7.03 µM (inactive); in the experiment with BT-549, 7.74 µM (inactive). As to `CCOP(=O)(OCC)c1ccc(=O)[nH]c1-c1cccs1`, the GI50 in the experiment with MDA-N and in the experiment with BT-549 was > 100 µM (inactive) in each case. With `Cc1ccc(C2NC(=N)NC3=C2CCOc2c3ccc3ccccc23)cc1` (stereo unspecified), in the experiment with BT-549, the GI50 is 6.04 µM (inactive). As to `CCOC(=O)C1C(c2ccccc2)C2(C#N)C(=N)OC1(C)C2(C#N)C#N` (stereo unspecified), in the experiment with MDA-N, the GI50 was 14.7 µM (inactive). For the molecule `CN(C)C1(N(C)C)Oc2c(c(=O)n(C)c(=O)n2C)C(c2ccc(Br)cc2)C1(F)F` (stereo unspecified), the GI50 in the experiment on BT-549 is > 100 µM (inactive). Take `Cc1ccc(/C=N\NC(=O)c2ccncc2)s1`: the GI50 in the experiment on MDA-N and with BT-549 was > 100 µM (inactive) each time. With `CN(CCNC(=O)c1n[nH]c2c1Cc1ccccc1-2)CCNC(=O)c1n[nH]c2c1Cc1ccccc1-2`, the GI50 was 16.5 µM (inactive) in the experiment with MDA-N and 16.8 µM (inactive) in the experiment on BT-549.

For the molecule `CCOC(=O)NC(Nc1ccc(S(=O)(=O)Nc2nc(C)cc(C)n2)cc1)(C(=O)OCC)C(F)(F)F` (stereo unspecified), the GI50 in the experiment with MDA-N and in the experiment with BT-549 was > 100 µM (inactive) throughout.

Regarding `C1=C[C@]2(CCC13OCCO3)COc1ccccc12`, the GI50 in the experiment with MDA-N was 35.6 µM (inactive). Take `Cc1ccc(C2=CC(=O)/C(=C\C(=O)c3ccc(Br)cc3)O2)c(C)c1`: the GI50 is 6.11 µM (inactive) in the experiment on MDA-N and 7.03 µM (inactive) in the experiment with BT-549. In the same order, the values of `O=C1CSC(=S)N1c1ccco1` are 19.8 µM (inactive) and 16.3 µM (inactive). In the same order, the values of `COc1cccc(/N=N/C(=N\NC(=O)c2ccc(C)cc2)c2ccc(N(CCC#N)CCC#N)cc2C)c1` are > 100 µM (inactive) and 71 µM (inactive). On to `C=C1CC(C)(c2cccc(Nc3nc4ccccc4c4occc34)c2)OC1=O` (stereo unspecified), for which the values for the GI50 in the experiment on MDA-N and with BT-549 were 5.21 µM (inactive) and 4.85 µM (inactive), respectively.

`N=C(N)SCCON1C(=O)c2ccccc2C1=O`: the GI50 in the experiment on MDA-N and with BT-549 was > 100 µM (inactive) throughout.

Consider `CC1=C(OC2OC(CO)C(O)C(O)C2O)C(=O)C[C@H]2C1=CC[C@@H]1[C@@]2(C)C(=O)C[C@]2(C)[C@@H]([C@@](C)(O)C(=O)CCC(C)(C)O)[C@H](O)C[C@@]12C` (stereo partly specified), for which the GI50 in the experiment with MDA-N and in the experiment with BT-549 was > 100 µM (inactive) in each case. With `Cc1ccc2nc(Cl)c(/C=N/N3C(=O)/C(=C/Cc4ccco4)N=C3c3ccccc3)cc2c1`, the GI50 in the experiment with MDA-N is 16.9 µM (inactive); in the experiment on BT-549 it was 29.7 µM (inactive).

With `CC1=NN=C(N)N/C1=C\C(Sc1ccc(Cl)cc1)c1ccc(Cl)cc1Cl` (stereo unspecified), the GI50 with MDA-N was 19.7 µM (inactive); in the experiment on BT-549, 20 µM (inactive). Consider `O=[N+]([O-])c1ccc2nc3ccccc3cc2c1`, for which the GI50 in the experiment on BT-549 is 4.05 µM (inactive). `Cc1ccc(C)c(N2C(=O)C(=O)c3c(C)ccc(C)c32)c1`: the GI50 with BT-549 is 19.5 µM (inactive). For the molecule `CC(NC(=O)OCc1ccccc1)NC(=O)C(CC(=O)OC(C)(C)C)NC(=O)OC(C)(C)C` (stereo unspecified), the GI50 in the experiment with MDA-N and in the experiment with BT-549 was > 100 µM (inactive) in each case. In the case of `CCOC(=O)c1[nH]c2nc(SC)nc(NC)c2c1N`, the GI50 in the experiment on MDA-N and in the experiment on BT-549 was > 100 µM (inactive) in each case. Take `C[C@@]12C[C@@H](c3ccccc3O1)N1CCSC1=N2`: the GI50 in the experiment on MDA-N and with BT-549 was > 100 µM (inactive) in each case.

For `C/C(=N\NC(=O)c1ccncc1)c1ccccc1F`, in the experiment with MDA-N, the GI50 was > 10 µM (inactive).

Consider `O=[N+]([O-])c1ccc(-c2nnc(C34CC5CC(CC(C5)C3)C4)o2)cc1`, for which the GI50 in the experiment on MDA-N is > 100 µM (inactive).
